What was measured:
[1] = tested on: IL-1β-induced NF-κB signaling in HEK-Blue IL-33/IL-1β cells; assay: NF-κB QUANTI-Blue assay; format: cell-based; details: Kineret 1.0 mg/mL, 30 min pretreatment, IL-1β 100 ng/ml
Experimental: FIG. 3 is a graph showing the effects of peptides 1 and 2 on IL-1β-induced NF-κB signaling in HEK-Blue cells as quantified in the QUANTI-blue assay. After pre-incubation with peptide or vehicle, HEK-Blue cells were stimulated with IL-1β for 24 h, and secreted alkaline phosphatase activity was spectroscopically detected as a reporter product from the transcription of the NF-κB gene. Data shown represents the average of 2 experiments (each with n=4 per treatment group): ****p<0.0001 compared to group treated only with IL-1β.
HEK-Blue IL-33/IL-1β cells (InvivoGen) were respectively pretreated with peptides 1 and 2 (10^−6 M), or Kineret (1.0 mg/mL) for 30 min, followed by treatment with a constant concentration of […] (100 ng/ml), and incubation at 37° C. for 4 h. Levels of secreted alkaline phosphatase in cell culture supernatant were determined using the QUANTI-Blue assay, according to the manufacturer's instructions (InvivoGen). Alkaline phosphatase activity was assessed by measuring the optical density (OD) at 620-655 nm with an EnVision Multilabel micro plate reader (PerkinElmer, Waltham, MA). Data are representative of 3 experiments (each with n=4 per treatment group).

IL-1β gene expression = assay: qPCR of IL-1β gene expression in RAW 264.7 macrophages; format: cell-based; details: peptide 10^−6 M, 30 min pre-incubation, IL-1β stimulation, RAW 264.7 mouse macrophages
Experimental: (§1) FIGS. 4A and 4B are graphs showing the results of qPCR analysis of IL-1β (FIG. 4A) and COX-2 (FIG. 4B) gene expression within lysates from RAW 264.7 mouse macrophage cells after exposure to peptides 1 and 2 (10^-6 M) or Kineret (1 mg/mL) followed by […] incubation overnight. Results represent an average of 3 independent experiments (each with n=4 per treatment group) and are expressed as a fold-change of the non-stimulated control: *p<0.05, **p<0.01 compared to group treated only with IL-1β, and 18S rRNA as internal control. Treatment groups that are not labeled with asterisks are statistically non-significant compared to group treated only with IL-1β.;
(§2) RAW Blue cells were purchased from InvivoGen® (San Diego, CA), used at passages under 15, and cultured in DMEM growth medium supplemented with 10% serum, 50 U/mL penicillin and […] zeocin. Cells were grown in regular conditions (37° C., 5% CO2), serum starved overnight, and treated with 100 ng/ML IL-1β for 4 h. Cells were respectively pre-incubated for 30 min with peptides 1 and 2 (10^−6 M) or Kineret® (1.0 mg/mL) to reach equilibrium prior to the experiments (n=4 each treatment). Cells were harvested and incubated for 5 min in RIBOzol® (AMRESCO). RNA was extracted according to manufacturer's protocol and RNA concentration and integrity were measured with a NanoDrop® 1,000 spectrophotometer. A total of 500 ng of RNA was used to synthesize cDNA using iScript Reverse Transcription SuperMix® (Bio-Rad, Hercules, CA). Primers (Table 1) were designed using National Center for Biotechnology Information Primer Blast. Quantitative gene expression analysis was performed on Stratagene® MXPro3000 (Stratagene) with SYBR Green Master Mix (Bio-Rad). Gene expression levels were normalized to 18S universal primer (Ambion Life Technology, Burlington ON, Canada). Genes analyzed include […] and PTGHS2 [Prostaglandin H synthetase 2 or cyclooxygenase-2 (COX-2)]. Data are representative of 3 experiments (each with n=4 per treatment group).

[2] = tested on: COX-2 (PTGHS2) gene expression; assay: qPCR of COX-2 gene expression in RAW 264.7 macrophages; format: cell-based; details: peptide 10^−6 M, 30 min pre-incubation, IL-1β stimulation, RAW 264.7 mouse macrophages
Experimental: as §1, §2

timed-pregnant CD-1 mice = assay: LPS-induced preterm birth model in mice; format: in vivo, mouse; details: 2 mg/kg/day subcutaneous, LPS 10 μg intraperitoneal on G16.5; for PTB rate: delivery before G18.5, LPS alone ˜80%
Experimental: FIG. 6 is a graph showing the effects of peptides 1 and 2 on prevention of PTB. In brief, pregnant dams on day 16.5 of gestation (G16.5) were subcutaneously pretreated with peptides 1 and 2 (2 mg/kg/day subcutaneous injections) or vehicle, followed by LPS (10 μg intraperitoneal injection), and observed for delivery of pups. A dam was considered as delivering preterm if at least one pup was delivered before G18.5. n=4-5 dams per treatment group.
Timed-pregnant CD-1 mice at 16.5 days of gestation (G16.5) were anesthetized with 2% isoflurane and received an intraperitoneal injection of lipopolysaccharide (LPS, n=4 per group, a single dose of 10 ug) (Nadeau-Vallée et al., 2015; Kakinuma et al., 1997). A dosage of 2 mg/kg/day of peptides 1 and 2 or vehicle was respectively injected subcutaneously in the neck, every 12h until delivery. On G16.5, a dose of 1 mg/kg was injected 30 min before stimulation with LPS (to allow distribution of drugs to target tissues) and 1 mg/kg was injected 12h after stimulation (n=4 each treatment). Mice delivery was assessed every hour until term (G19-G19.5). A mouse was considered as delivering prematurely if the first pup was delivered earlier than G18.5. Data was analyzed using Prism 7 (GraphPad Software, San Diego, CA, USA) with one-way ANOVA and Dunnett's test for multiple comparisons. Outliers were detected using Grubb's test. Results were treated as significant when p was <0.05 and expressed as mean+SEM.
From the results of the in vitro screens, a subset of six (3R,4S)-β-substituted-Agl^3 peptides (e.g., 2c, 2d, 2f, 2l, 2n, 2q) were selected for examination in vivo in a CD-1 mouse model of preterm birth (PTB), and a Sprague Dawley rat model of oxygen-induced retinopathy (OIR). In the PTB model, timed-pregnant CD-1 dams were pre-treated with peptides 1 or 2, or PBS vehicle, and then injected with LPS on day 16.5 of gestation (G16.5). A bacterial cell wall component that contains PAMPs, LPS is known to reliably induce labor via pro-inflammatory pathways implicating IL-1 (Hirsch and Wang 2005). The CD-1 mice have a gestation of 19.2 days (Goupil et al. 2010). Dams that delivered at least one pup before G18.5 were considered to have given birth prematurely. In the absence of peptide, LPS alone induced premature labor in ˜80% of treated mice (FIG. 6). Peptide 1 and triazoles 2 l and 2q, all reduced the PTB rate to ˜20%.

[3] = tested on: IL-1β-induced phosphorylation of JNK; assay: IL-1β-induced JNK phosphorylation, Western blot, RAW Blue cells; format: cell-based; details: peptide 10^−6 M 30 min, then IL-1β 15 min
Experimental: (§3) FIGS. 5A-C are graphs showing the effects of peptides 1 and 2 on IL-1β-induced phosphorylation of p38 (FIG. 5A), JNK (FIG. 5B), and ROCK2 (FIG. 5C). Graphical representations of band density analysis of Western Blots are shown as fold activation compared to control. RAW Blue cells were pretreated with peptides 1 and 2 (10^−6 M), Kineret (1 mg/mL), or vehicle for 30 min and then stimulated with IL-1β for 15 min. Results shown are the average of 3 independent experiments: *p<0.05, ** p<0.01, ***p<0.001 compared to group treated only with IL-1β. Treatment groups that are not labeled with asterisks are statistically non-significant compared to group treated only with IL-1β.

Sprague Dawley rat pups = assay: Oxygen-induced retinopathy (OIR) model; format: in vivo; details: 2 mg/kg/day intraperitoneal twice daily, 80% oxygen P5 to P10; for extent of vaso-obliteration (percentage of total retinal area): vehicle ˜30%
Source text: Experiments in the oxygen-induced retinopathy rodent model were preformed according to the method described previously (Geranurimi et al. 2019), and summarized below.
Animals. Two-day-old (P2) Sprague Dawley rat pups and their mothers were ordered from Charles River (Raleigh, SC, USA) and acclimatized for 3 days in standard conditions. All procedures and protocols involving the use of the rats were approved by the Animal Care Committee of the research center of Hopital Maisonneuve-Rosemont and are in accordance with the Statement for the Use of Animals in Ophthalmic and Vision Research approved by the Association for Research in Vision and Ophthalmology, and guidelines established by the Canadian Council on Animal Care.
Oxygen-Induced Retinopathy in Sprague Dawley Rats. The 80% oxygen model of retinopathy was conducted as previously described (Geranurimi et al. 2019). Briefly, litters of P5 pups and their mothers were kept in a controlled 80% oxygen environment until P10. The pups were respectively injected intraperitoneally twice daily with PBS vehicle (20 μL per injection), peptide 1 or derivatives 2 (titrated to a daily dose of 2 mg/kg/day). Control litters were kept under normal air atmosphere and standard conditions. On P10, pups were euthanized by decapitation under 2% isoflurane anesthesia. Eyes were enucleated and fixed in 4% paraformaldehyde, then stored at 4° C. in phosphate-buffered saline (PBS) until further processing.
Retinal Flatmount and Immunohistochemistry. The fixed eyes were dissected, and the obtained retinas were incubated with antibodies and mounted onto slides as previously described in (Geranurimi et al. 2019). Briefly, the cornea and lens were removed from the eyes, and the retina gently removed from the underlying sclera-choroid-retinal pigmented epithelium (RPE) complex. Retinas were treated for 1h with blocking solution [1% bovine serum albumin (BSA), 1% normal goat serum, 0.1% Triton X-100 and 0.05% Tween-20 in PBS], and then incubated overnight with lectin and Iba-1 primary antibody, followed by Alexa-594-conjugated secondary antibody for 2 h. Retinas were then mounted onto microscope slides under coverslips with anti-fade mounting medium.
Microscopy. Retinal flatmounts were imaged using the Zeiss Axiolmager Z2 and the MosaiX feature of the AxioVision software as previously described (Geranurimi et al. 2019). Representative images after Iba-1 staining were taken using a laser scanning confocal microscope (Olympus IX81 with Fluoview FV1000 Scanhead) using the Fluoview Software at 30× magnification.
Quantification and Data Analysis. The FIJI software was used to quantify the area of vaso-obliteration in each retina, expressed as a percentage of the area of the whole retina. The number of Iba-1-positive cells was counted using the cell counter plug-in in the FIJI software, and the average of cell counts in 4 fields per retina was calculated. Data was analyzed using Prism 7 with one-way ANOVA and the Dunnett's test for multiple comparisons. Results were treated as significant when p was less than 0.05 and expressed as mean+SEM.

[4] = tested on: IL-1β-induced phosphorylation of p38; assay: IL-1β-induced p38 phosphorylation, Western blot, RAW Blue cells; format: cell-based; details: peptide 10^−6 M 30 min, then IL-1β 15 min
Experimental: as §3

[5] = tested on: IL-1β-induced phosphorylation of ROCK2; assay: IL-1β-induced ROCK2 phosphorylation, Western blot, RAW Blue cells; format: cell-based; details: peptide 10^−6 M 30 min, then IL-1β 15 min
Experimental: as §3

Substance | IL-1β pro-inflammatory gene expression (qPCR) (IL-1β gene expression) | COX-2 pro-inflammatory gene expression (qPCR) [2] | retinal microglial morphology/activation (Iba-1 staining) (Sprague Dawley rat pups) | extent of vaso-obliteration (percentage of total retinal area) (Sprague Dawley rat pups) [%] | other results
Kineret®: the recombinant IL-1 receptor antagonist, Kineret® (anakinra) | – | – | – | – | effect on IL-1β-induced NF-κB signaling (secreted alkaline phosphatase) [1]: blocked
[(3R,4S)-4-(4′-(1,1-Dimethyl)aminomethyltriazolyl)Agl^3]-1 [2o] | strong inhibitory effects | strong inhibitory effects | – | – | –
[(3R,4S)-4-(4′-Hydroxymethyltriazolyl)Agl^3]-1 [2q] | strong inhibitory effects | strong inhibitory effects | ramified and branched microglia | ~20 | PTB rate (timed-pregnant CD-1 mice): ~20%; IL-1β-induced activation (phosphorylation) of JNK [3]: inhibited
[(3R,4S)-4-(4′-Phenyltriazolyl)Agl^3]-1 [2l] | – | – | ramified and branched microglia | ~20 | IL-1β-induced p38 phosphorylation [4]: inhibiting; PTB rate (timed-pregnant CD-1 mice): ~20%; IL-1β-induced activation (phosphorylation) of JNK [3]: inhibited; IL-1β-induced ROCK2 phosphorylation [5]: inhibitory activity; protective effect against vaso-obliteration (Sprague Dawley rat pups): tendencies to have a stronger protective effect than peptide 1
[(3R,4S)-4-(4′-m-Aminophenyltriazolyl)Agl^3]-1 [2n] | – | – | ramified and branched microglia | ~20 | effects on PTB (timed-pregnant CD-1 mice): Neither N-oxyphthalimide 2f nor 4-m-aminophenyltriazole 2n exhibited effects on PTB
[(3R,4S)-4-(4′-p-Methylphenyltriazolyl)Agl^3]-1 [2m] | strong inhibitory effects | strong inhibitory effects | – | – | –
[(3R,4S)-4-(AcHN)Agl^3]-1 [2i] | without effecting | blocked expression | – | – | IL-1β-induced p38 phosphorylation [4]: inhibiting
[(3R,4S)-4-(H2NO)Agl^3]-1 [2g] | without effecting | blocked expression | – | – | IL-1β-induced ROCK2 phosphorylation [5]: inhibitory activity
[(3R,4S)-4-(PhthO)Agl^3]-1 [2f] | – | – | ramified and branched microglia | ~20 | effects on PTB (timed-pregnant CD-1 mice): Neither N-oxyphthalimide 2f nor 4-m-aminophenyltriazole 2n exhibited effects on PTB
[(3R, 4S)-4-(N3)Agl^3]-1 [2c] | – | – | active amoeboid state | – | protective effect against vaso-obliteration (Sprague Dawley rat pups): no detectable protective effect
[(3S,4S)-4-(NCS)Agl^3]-1 [2d] | – | – | ramified and branched microglia | ~20 | IL-1β-induced p38 phosphorylation [4]: inhibiting; protective effect against vaso-obliteration (Sprague Dawley rat pups): tendencies to have a stronger protective effect than peptide 1
